Measurements: US11802120B2, “Fused cyclic urea derivatives as CRHR2 antagonist” (RaQualia Pharma Inc., priority 2018, dated 2023)

Target: T1, human CRHR2-alpha (Homo sapiens, UniProt Q13324)
T1 sequence (Q13324 1-411): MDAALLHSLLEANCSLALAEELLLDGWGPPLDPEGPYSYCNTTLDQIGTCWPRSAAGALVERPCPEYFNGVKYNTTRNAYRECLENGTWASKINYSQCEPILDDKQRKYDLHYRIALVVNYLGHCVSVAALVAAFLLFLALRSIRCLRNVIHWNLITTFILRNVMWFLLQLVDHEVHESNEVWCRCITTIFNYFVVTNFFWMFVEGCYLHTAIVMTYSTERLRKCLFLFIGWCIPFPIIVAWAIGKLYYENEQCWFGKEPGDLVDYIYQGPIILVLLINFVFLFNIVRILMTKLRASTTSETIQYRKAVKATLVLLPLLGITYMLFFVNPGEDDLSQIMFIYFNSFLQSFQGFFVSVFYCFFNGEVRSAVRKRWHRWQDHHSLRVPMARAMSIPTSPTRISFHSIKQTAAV
Test: cAMP functional assay for human CRHR2 (LANCE Ultra cAMP, TR-FRET)
Type: cell-based
Conditions: CHO-K1 cells expressing human CRHR2-alpha, agonist human urocortin2 at EC80, cAMP; read-out: IC50 against CRHR2
Outline: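 CHO-K1 stable lines; 4,000 cells/well; compound 30 min, 25° C; EC80 agonist (human urocortin2 → CRHR2, CRF → CRHR1) 30 min, 25° C; buffer HBSS/0.1% BSA/0.5 mM IBMX/5 mM Hepes pH 7.4; Eu-cAMP tracer + ULight antibody 60 min; TR-FRET read; IC50 from % inhibition curves.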

SMILES	IC50 [nM]
Cc1ncc(Cl)cc1C(=O)N[C@H]1CC[C@H](Cn2c(=O)n(-c3ccc4ccncc4c3)c3ccccc32)CC1 [Example 396, 5-chloro-N-((1r,4r)-4-((3-(isoquinolin-7-yl)-2-oxo-2,3-dihydro-1H-benzo[d]imidazol-1-yl)methyl)cyclohexyl)-2-methyl-nicotinamide]	< 300
O=C(N[C@H]1CC[C@H](Cn2c(=O)n(-c3ccc4cnccc4c3)c3ccccc32)CC1)c1cc(Cl)cnc1C(F)F [Example 397, 5-chloro-2-(difluoromethyl)-N-((1r,4r)-4-((3-(isoquinolin-6-yl)-2-oxo-2,3-dihydro-1H-benzo[d]imidazol-1-yl)methyl)cyclohexyl)nicotinamide]	< 300
O=C(N[C@H]1CC[C@H](Cn2c(=O)n(-c3ccc4cnccc4c3)c3ccccc32)CC1)c1cc(Cl)cnc1C(F)(F)F [Example 398, 5-chloro-N-((1r,4r)-4-((3-(isoquinolin-6-yl)-2-oxo-2,3-dihydro-1H-benzo[d]imidazol-1-yl)methyl)cyclohexyl)-2-(trifluoromethyl)nicotinamide]	< 300
COc1cc(-n2c(=O)n(C[C@H]3CC[C@H](NC(=O)c4cc(Cl)cnc4C(F)F)CC3)c3cccnc32)ccc1F [Example 399, 5-chloro-2-(difluoromethyl)-N-((1r,4r)-4-((3-(4-fluoro-3-methoxyphenyl)-2-oxo-2,3-dihydro-1H-imidazo[4,5-b]pyridin-1-yl)methyl)cyclo-hexyl)nicotinamide]	< 300
CC(=O)c1ccc(-n2c(=O)n(C[C@H]3CC[C@H](NC(=O)c4cc(Cl)cnc4C(F)F)CC3)c3cccnc32)cc1 [Example 400, N-((1r,4r)-4-((3-(4-acetylphenyl)-2-oxo-2,3-dihydro-1H-imidazo [4,5-b]pyridin-1-yl)methyl)cyclo-hexyl)-5-chloro-2-(difluoro-methyl)nicotinamide]	< 300
COc1ccc(-n2c(=O)n(C[C@H]3CC[C@H](NC(=O)c4cc(Cl)cnc4C)CC3)c3cccnc32)cc1OC1CCCC1 [Example 401, 5-chloro-N-((1r,4r)-4-((3-(3-(cyclopentyloxy)-4-methoxy-phenyl)-2-oxo-2,3-dihydro-1H-imidazo[4,5-b]pyridin-1-yl)methyl)cyclohexyl)-2-methylnicotinamide]	< 300
CCOc1ccc(-n2c(=O)n(C[C@H]3CC[C@H](NC(=O)c4cc(Cl)cnc4C)CC3)c3cccnc32)cc1 [Example 402, 5-chloro-N-((1r,4r)-4-((3-(4-ethoxyphenyl)-2-oxo-2,3-dihydro-1H-imidazo[4,5-b]pyridin-1-yl)methyl)cyclo-hexyl)-2-methylnicotinamide]	< 300
Cc1ncc(Cl)cc1C(=O)N[C@H]1CC[C@H](Cn2c(=O)n(-c3ccc4c(c3)cc(C(N)=O)n4C)c3ccccc32)CC1 [Example 403, 5-(3-(((1r,4r)-4-(5-chloro-2-methylnicotinamido)cyclo-hexyl)methyl)-2-oxo-2,3-dihydro-1H-benzo[d]imidazol-1-yl)-1-methyl-1H-indole-2-carboxamide]	< 300
CNC(=O)c1cc2cc(-n3c(=O)n(C[C@H]4CC[C@H](NC(=O)c5cc(Cl)cnc5C)CC4)c4ccccc43)ccc2n1C [Example 404, 5-(3-(((1r,4r)-4-(5-chloro-2-methylnicotinamido)cyclo-hexyl)methyl)-2-oxo-2,3-dihydro-1H-benzo[d]imidazol-1-yl)-N,1-dimethyl-1H-indole-2-carboxamide]	< 300
Cc1ncc(Cl)cc1C(=O)N[C@H]1CC[C@H](Cn2c(=O)n(-c3ccc4c(c3)cc(C(=O)N(C)C)n4C)c3ccccc32)CC1 [Example 405, 5-(3-(((1r,4r)-4-(5-chloro-2-methylnicotinamido)cyclo-hexyl)methyl)-2-oxo-2,3-dihydro-1H-benzo[d]imidazol-1-yl)-N,N,1-trimethyl-1H-indole-2-carboxamide]	< 300
Cn1cnc2ccc(-n3c(=O)n(C[C@H]4CC[C@H](NC(=O)c5cc(Cl)cnc5C(F)F)CC4)c4ccccc43)cc21 [Example 406, 5-chloro-2-(difluoromethyl)-N-((1r,4r)-4-((3′-methyl-2-oxo-3′H-[1,5′-bibenzo[d]imidazol]-3(2H)-yl)methyl)cyclohexyl) nicotinamide]	< 300
O=C(N[C@H]1CC[C@H](Cn2c(=O)n(-c3ccc4nccnc4c3)c3ccccc32)CC1)c1cc(Cl)cnc1C(F)(F)F [Example 407, 5-chloro-N-((1r,4r)-4-((2-oxo-3-(quinoxalin-6-yl)-2,3-dihydro-1H-benzo[d]imidazol-1-yl)methyl)cyclohexyl)-2-(trifluoromethyl)nicotinamide]	< 300
Cc1ncc(Cl)cc1C(=O)N[C@H]1CC[C@H](Cn2c(=O)n(-c3cnc4[nH]ccc4c3)c3ccccc32)CC1 [Example 408, 5-chloro-2-methyl-N-((1r,4r)-4-((2-oxo-3-(1H-pyrrolo[2,3-b]pyridin-5-yl)-2,3-dihydro-1H-benzo[d]imidazol-1-yl)methyl)cyclohexyl)nicotinamide]	< 300
Cc1ncc(Cl)cc1C(=O)N[C@H]1CC[C@H](Cn2c(=O)n(-c3cnc4c(c3)c(C)cn4C)c3ccccc32)CC1 [Example 409, 5-chloro-N-((1r,4r)-4-((3-(1,3-dimethyl-1H-pyrrolo[2,3-b]pyridin-5-yl)-2-oxo-2,3-dihydro-1H-benzo[d]imidazol-1-yl)methyl)cyclohexyl)-2-methylnicotinamide]	< 300
O=C(NCCF)c1ccc(-n2c(=O)n(C[C@H]3CC[C@H](NC(=O)c4cc(Cl)cnc4C(F)(F)F)CC3)c3ccccc32)cn1 [Example 410, 5-(3-(((1r,4r)-4-(5-chloro-2-(trifluoromethyl)nicotinamido)cyclohexyl)methyl)-2-oxo-2,3-dihydro-1H-benzo[d]imidazol-1-yl)-N-(2-fluoroethyl) picolinamide]	< 300
O=C(NCC(F)F)c1ccc(-n2c(=O)n(C[C@H]3CC[C@H](NC(=O)c4cc(Cl)cnc4C(F)(F)F)CC3)c3ccccc32)cn1 [Example 411, 5-(3-(((1r,4r)-4-(5-chloro-2-(trifluoromethyl)nicotinamido)cyclohexyl)methyl)-2-oxo-2,3-dihydro-1H-benzo[d]imidazol-1-yl)-N-(2,2-difluoroethyl) picolinamide]	< 300
Cc1ncc(Cl)cc1C(=O)N[C@H]1CC[C@H](Cn2c(=O)n(-c3ccc(SCCO)nc3)c3ccccc32)CC1 [Example 412, 5-chloro-N-((1r,4r)-4-((3-(6-((2-hydroxyethyl)thio)pyridin-3-yl)-2-oxo-2,3-dihydro-1H-benzo[d]imidazol-1-yl)methyl)cyclohexyl)-2-methylnicotinamide]	< 300
Cc1ncc(Cl)cc1C(=O)N[C@H]1CC[C@H](Cn2c(=O)n(-c3cncc(N4CCOCC4)c3)c3ccccc32)CC1 [Example 413, 5-chloro-2-methyl-N-((1r,4r)-4-((3-(5-morpholinopyridin-3-yl)-2-oxo-2,3-dihydro-1H-benzo[d]imidazol-1-yl)methyl)cyclohexyl)nicotinamide]	< 300
O=C(N[C@H]1CC[C@H](Cn2c(=O)n(-c3ccn4cncc4c3)c3ccccc32)CC1)c1cc(Cl)cnc1C(F)F [Example 415, 5-chloro-2-(difluoromethyl)-N-((1r,4r)-4-((3-(imidazo[1,5-a]pyridin-7-yl)-2-oxo-2,3-dihydro-1H-benzo[d]imidazol-1-yl)methyl)cyclohexyl)nicotinamide]	< 300
